Test results reported in PMC12735969, “Regulation of NAD^+ Homeostasis by SsNrtR in Streptococcus Sobrinus: A Critical Determinant of Its Cariogenic Potential” (Pathogens, 2025).

Biological target: T1, SsNrtR (Streptococcus sobrinus, UniProt A0ABM6W328)
T1 construct: gene DK182_01300; full-length, hexahistidine tag, pET28b-nrtR, E. coli BL21(DE3), Ni-NTA and Superdex 200; about 28 kDa; dimer and oligomers
Assay: EMSA, release from pnuC/pncB promoter DNA
Format: binding
Settings: ADPR 0-1.0 mM; 200 bp pnuC/pncB promoter probe; allosteric anti-repressor

## Nc1ncnc2c1ncn2[C@@H]1O[C@H](COP(=O)(O)OP(=O)(O)OC[C@H]2OC(O)[C@H](O)[C@@H]2O)[C@@H](O)[C@H]1O (stereo partly shown) [ADP-ribose]
  EMSA, release from pnuC/pncB promoter DNA: the interaction between SsNrtR and the pnuC/pncB DNA probe was disrupted by ADPR
